# US20250144067A1, “PERSONALIZED STARVATION THERAPY FOR CANCER” (Faeth Therapeutics, Inc., priority 2021, published 2025)
# Where a name gives a salt, the structure may show the parent alone.
# Tests used:
# [1] = tested on: NCI-H292 lung cancer cells; test: FDA drug screening, complete media vs cholesterol-free media without statin (TABLE 1); format: cell-based, human
# [2] = tested on: NCI-H292 lung cancer cells; test: FDA drug screening, complete media vs cholesterol-free media with simvastatin (TABLE 2); format: cell-based, human; details: for Cholesterol-free media + simvastatin (0.04 μM) / Complete Media: NCI-H292 cells
# [3] = Complete minus Cholesterol-free, >0 enhanced anti-cancer activity, about 0 neutral, <0 antagonist
# [4] = NCI-H292 cells, cholesterol-free media without statin, FDA drug library screen
# [5] = NCI-H292 cells, complete media, FDA drug library screen
# [6] = cholesterol-free media with simvastatin 0.04 μM, FDA drug library screen (TABLE 2)
# [7] = complete media, FDA drug library screen (TABLE 2)
# [8] = complete media minus cholesterol-free media + simvastatin (0.04 μM), >0 enhanced anti-cancer activity, about 0 neutral, <0 antagonist
# [9] = complete vs cholesterol-free media, >0 enhanced anti-cancer activity, about 0 neutral, <0 antagonist
# [10] = cholesterol-free media with simvastatin 0.04 μM, cell growth value in FDA drug screen
# [11] = complete media, cell growth value in FDA drug screen
# [12] = complete media minus cholesterol-free media + simvastatin, >0 enhanced anti-cancer activity, about 0 neutral, <0 antagonist
# [13] = FDA drug library screen, cholesterol-free media with simvastatin 0.04 μM
# [14] = FDA drug library screen, complete media
# [15] = complete media vs cholesterol-free media + simvastatin (0.04 μM), >0 enhanced anti-cancer activity, about 0 neutral, <0 antagonist
# [16] = NCI-H292 cells, cholesterol-free media without statin
# [17] = complete vs cholesterol-free media, greater than 0 enhanced anti-cancer activity, about 0 neutral, below 0 antagonists
# [18] = Complete minus Cholesterol-free, greater than 0 enhanced anti-cancer activity, about 0 neutral, below 0 antagonist
# [19] = NCI-H292 cells, FDA drug library screen, cholesterol-free media without statin
# [20] = NCI-H292 cells, FDA drug library screen, complete media
# [21] = drug in cholesterol-free media with simvastatin 0.04 μM
# [22] = Complete minus Cholesterol-free, […]
# [23] = FDA library drug in cholesterol-free media with simvastatin 0.04 μM
# [24] = FDA library drug in complete media
# [25] = complete media vs cholesterol-free media + simvastatin (0.04 μM), […]
# [26] = Complete minus Cholesterol-free, greater than 0 enhanced anti-cancer activity, about 0 neutral, below 0 antagonists
# [27] = NCI-H292 cells in cholesterol-free media without statin
# [28] = NCI-H292 cells in complete media
compound,measurement,setting,value
O=C(O)/C=C/c1ccc(Cn2ccnc2)cc1 [Ozagrel (sodium)],Difference,[1]; [3],−0.07
same,Cholesterol-free,[1]; [4],1.134
same,Complete,[1]; [5],1.068
same,Cholesterol-free media + simvastatin (0.04 μM),[2]; [6],1.082
same,Complete Media,[2]; [7],1.026
same,Difference,[2]; [8],−0.06
COc1cc(OC)cc(N(CCNC(C)C)c2ccc3ncc(-c4cnn(C)c4)nc3c2)c1 [Erdafitinib],Cholesterol-free,[1]; [4],0.8277
same,Complete,[1]; [5],1.177
same,Difference,[1]; [9],0.35
same,Cholesterol-free media + simvastatin (0.04 μM),[2]; [10],0.8898
same,Complete Media,[2]; [11],0.9602
same,Difference,[2]; [12],0.07
Cc1cccn2c(=O)c(-c3nnn[nH]3)cnc12 [Pemirolast (potassium)],Cholesterol-free,[1]; [4],0.8951
same,Complete,[1]; [5],1.011
same,Difference,[1]; [9],0.12
same,Cholesterol-free media + simvastatin (0.04 μM),[2]; [13],1.053
same,Complete Media,[2]; [14],0.9441
same,Difference,[2]; [15],−0.11
Cc1cn(-c2cc(NC(=O)c3ccc(C)c(Nc4nccc(-c5cccnc5)n4)c3)cc(C(F)(F)F)c2)cn1 [Nilotinib],Cholesterol-free,[1]; [16],1.511
same,Complete,"[1]; NCI-H292 cells, complete media",1.113
same,Difference,[1]; [17],−0.40
same,Cholesterol-free media + simvastatin (0.04 μM),[2]; [10],0.9437
same,Complete Media,[2]; [11],0.9791
same,Difference,[2]; [12],0.04
CCCCC(=O)N(Cc1ccc(-c2ccccc2-c2nnn[nH]2)cc1)[C@H](C(=O)O)C(C)C [Valsartan],Difference,[1]; [18],−0.09
same,Cholesterol-free,[1]; [19],0.8984
same,Complete,[1]; [20],0.8065
same,Cholesterol-free media + simvastatin (0.04 μM),[2]; [21],1.056
same,Complete Media,[2]; drug in complete media,0.8568
same,Difference,[2]; [15],−0.20
Nc1ncnc2c1ncn2[C@@H]1O[C@H](COP(=O)(O)OP(=O)(O)OP(=O)(O)O)[C@@H](O)[C@H]1O [ATP],Difference,[1]; [18],−0.10
same,Cholesterol-free,[1]; [19],1.57
same,Complete,[1]; [20],1.466
same,Cholesterol-free media + simvastatin (0.04 μM),[2]; [21],1.049
same,Complete Media,[2]; drug in complete media,0.8041
same,Difference,[2]; [15],−0.24
CC(=O)OCC(=O)[C@@]1(O)CC[C@H]2[C@@H]3CCC4=CC(=O)C=C[C@]4(C)[C@H]3C(=O)C[C@@]21C [Prednisone acetate],Difference,[1]; [22],−0.20
same,Cholesterol-free,[1]; [16],0.9782
same,Complete,"[1]; NCI-H292 cells, complete media",0.7806
same,Cholesterol-free media + simvastatin (0.04 μM),[2]; [23],0.9605
same,Complete Media,[2]; [24],0.6606
same,Difference,[2]; [25],−0.30
CC[N+](C)(CC)CCOC(=O)C(O)(c1ccccc1)c1ccccc1 [Methylbenactyzium Bromide],Difference,[1]; [22],0.02
same,Cholesterol-free,[1]; [4],0.9201
same,Complete,[1]; [5],0.945
same,Cholesterol-free media + simvastatin (0.04 μM),[2]; [23],1.651
same,Complete Media,[2]; [24],1.081
same,Difference,[2]; [25],−0.57
O=C1Nc2ccc(Cl)cc2[C@@](C#CC2CC2)(C(F)(F)F)O1 [Efavirenz],Cholesterol-free,[1]; [16],1.108
same,Complete,"[1]; NCI-H292 cells, complete media",0.7866
same,Difference,[1]; [17],−0.32
same,Cholesterol-free media + simvastatin (0.04 μM),[2]; [10],1.215
same,Complete Media,[2]; [11],1.301
same,Difference,[2]; [12],0.09
CCCN1CC(c2ccc(S(C)(=O)=O)cc2)=C(c2ccc(C)cc2)C1=O [Imrecoxib],Difference,[1]; [26],−0.54
same,Cholesterol-free,[1]; [27],1.763
same,Complete,[1]; [28],1.221
same,Cholesterol-free media + simvastatin (0.04 μM),[2]; [6],1.183
same,Complete Media,[2]; [7],1.141
same,Difference,[2]; [8],−0.04
CNCCCC1c2ccccc2C=Cc2ccccc21 [Protriptyline (hydrochloride)],Difference,[1]; [3],−0.19
same,Cholesterol-free,[1]; [16],1.347
same,Cholesterol-free media + simvastatin (0.04 μM),[2]; [23],1.142
same,Complete Media,[2]; [24],0.7923
same,Difference,[2]; [15],−0.35
CO/N=C(\C(=O)N[C@@H]1C(=O)N2C(C(=O)OCOC(=O)C(C)(C)C)=C(/C=C\c3scnc3C)CS[C@H]12)c1csc(N)n1 [Cefditoren (Pivoxil)],Difference,[1]; [3],−0.05
same,Cholesterol-free,[1]; [4],1.012
same,Complete,[1]; [5],0.9665
same,Cholesterol-free media + simvastatin (0.04 μM),[2]; [10],0.7736
same,Complete Media,[2]; [11],0.8262
same,Difference,[2]; [12],0.05
CC(/C=C/C=C(\C)C(=O)O[C@@H]1O[C@H](CO[C@@H]2O[C@H](CO)[C@@H](O)[C@H](O)[C@H]2O)[C@@H](O)[C@H](O)[C@H]1O)=C\C=C\C=C(C)\C=C\C=C(/C)C(=O)O[C@@H]1O[C@H](CO[C@@H]2O[C@H](CO)[C@@H](O)[C@H](O)[C@H]2O)[C@@H](O)[C@H](O)[C@H]1O [Crocin],Difference,[1]; [18],−0.11
same,Cholesterol-free,[1]; [19],1.099
same,Complete,[1]; [20],0.9914
same,Cholesterol-free media + simvastatin (0.04 μM),[2]; [21],1.135
same,Complete Media,[2]; drug in complete media,0.9252
same,Difference,[2]; [15],−0.21
CC(C)C(=O)Nc1ccc([N+](=O)[O-])c(C(F)(F)F)c1 [Flutamide],Difference,[1]; [3],−0.27
same,Cholesterol-free,[1]; [16],1.049
same,Complete,"[1]; NCI-H292 cells, complete media",0.7826
same,Cholesterol-free media + simvastatin (0.04 μM),[2]; [6],0.8786
same,Complete Media,[2]; [7],0.855
same,Difference,[2]; [8],−0.02
NC(=O)OCC(COC(N)=O)c1ccccc1 [Felbamate],Cholesterol-free,[1]; [4],0.9609
same,Complete,[1]; [5],1.103
same,Difference,[1]; [9],0.14
same,Cholesterol-free media + simvastatin (0.04 μM),[2]; [21],1.169
same,Complete Media,[2]; drug in complete media,0.9237
same,Difference,[2]; [15],−0.25
N=C(N)c1ccc(OCCCCCOc2ccc(C(=N)N)cc2)cc1.O=S(=O)(O)CCO.O=S(=O)(O)CCO [Pentamidine (isethionate)],Difference,[1]; [18],−0.17
same,Cholesterol-free,[1]; [19],0.6432
same,Complete,[1]; [20],0.4688
same,Cholesterol-free media + simvastatin (0.04 μM),[2]; [10],0.3285
same,Complete Media,[2]; [11],0.4548
same,Difference,[2]; [12],0.13
Flupirtine (Maleate),Difference,[1]; [26],−0.56
same,Cholesterol-free,[1]; [27],1.589
same,Cholesterol-free media + simvastatin (0.04 μM),[2]; [10],0.9024
same,Complete Media,[2]; [11],0.9412
same,Difference,[2]; [12],0.04
Cc1cn(-c2cc(NC(=O)c3ccc(C)c(Nc4nccc(-c5cccnc5)n4)c3)cc(C(F)(F)F)c2)cn1,Difference,[1]; [26],−0.54
same,Cholesterol-free,[1]; [27],1.23
same,Complete,[1]; [28],0.6857
same,Cholesterol-free media + simvastatin (0.04 μM),[2]; [13],0.854
same,Complete Media,[2]; [14],0.7821
same,Difference,[2]; [15],−0.07
COc1cccc(OC)c1C(=O)N[C@@H]1C(=O)N2[C@@H]1SC(C)(C)[C@@H]2C(=O)O [Methicillin (sodium salt)],Difference,[1]; [3],−0.06
same,Cholesterol-free,[1]; [4],1.114
same,Complete,[1]; [5],1.051
same,Cholesterol-free media + simvastatin (0.04 μM),[2]; [23],1.829
same,Complete Media,[2]; [24],1.406
same,Difference,[2]; [15],−0.42
Nc1nc2ncc(CNc3ccc(C(=O)N[C@@H](CCC(=O)O)C(=O)O)cc3)nc2c(=O)[nH]1 [Folic acid],Cholesterol-free,[1]; [16],1.731
same,Complete,"[1]; NCI-H292 cells, complete media",1.312
same,Difference,[1]; [17],−0.42
same,Cholesterol-free media + simvastatin (0.04 μM),[2]; [21],1.118
same,Complete Media,[2]; drug in complete media,0.9443
same,Difference,[2]; [15],−0.17
C[C@@H](O)[C@H]1C(=O)N2C(C(=O)O)=C(S[C@@H]3CN[C@H](CNS(N)(=O)=O)C3)[C@H](C)[C@H]12 [Doripenem (monohydrate)],Difference,[1]; [3],−0.25
same,Cholesterol-free,[1]; [16],1.011
same,Complete,"[1]; NCI-H292 cells, complete media",0.7618
same,Cholesterol-free media + simvastatin (0.04 μM),[2]; [13],0.9911
same,Complete Media,[2]; [14],0.8363
same,Difference,[2]; [15],−0.15
CC1=C(C(=O)OC(C)C)C(c2cccc([N+](=O)[O-])c2)C(C(=O)OC2CN(C(c3ccccc3)c3ccccc3)C2)=C(N)N1 (stereo not shown) [Azelnidipine],Difference,[1]; [18],−0.15
same,Cholesterol-free,[1]; [19],0.7076
same,Complete,[1]; [20],0.5567
same,Cholesterol-free media + simvastatin (0.04 μM),[2]; [13],0.7982
same,Complete Media,[2]; [14],1.013
same,Difference,[2]; [12],0.21
